Activity calls are given as the source filed them. The rule behind the calls is not given here.

One data set deals with KB 3-1. Briefly: Cytotoxicity against human KB-3-1cells incubated for 24 hrs by MTT assay. Format: toxicity, cell-based. To be noted: kb 3-1, 24 h. A general note: Formazan colour is commonly taken as a measure of viable cells.
The subject of a further data set is HeLa. The data set can be described thus: Cytotoxicity against human HeLa cells incubated for 24 hrs by MTT assay. Format: toxicity, cell-based.
A further data set deals with Escherichia coli. Briefly: Antibacterial activity against Escherichia coli DH5a incubated for 18 hrs by spectrophotometric based microdilution assay. Format: functional, organism-based. In general terms: Dilution methods test growth across graded concentrations, often in twofold steps.

With `C=C([C@@H]1CC=C(C)CC1)[C@@H](O)[C@H]1C[C@@H](C)C(=O)O1`, the Activity result in the data set on KB 3-1 and with HeLa was “Non-Toxic” throughout.
On to `C=C([C@@H]1CC=C(C)CC1)[C@H](O)[C@H]1C[C@@H](C)C(=O)O1`, for which the result in the data set with Escherichia coli was inactive. For the same compound, the Activity result with KB 3-1 and with HeLa was “Non-Toxic” throughout.
In the case of `C=C([C@H]1CC=C(C)CC1)[C@@H](O)[C@H]1C[C@@H](C)C(=O)O1`, the result in the data set with Escherichia coli was inactive. In addition, the Activity result in the data set on KB 3-1 and in the data set with HeLa was “Non-Toxic” throughout.
Turning to `C=C([C@H]1CC=C(C)CC1)[C@H](O)[C@H]1C[C@@H](C)C(=O)O1`, the Activity result with KB 3-1 and with HeLa was “Non-Toxic” each time.

(Values after ChEMBL document CHEMBL5376008, “Total Synthesis, Revised Structure, and Biological Evaluation of Elgonene B and Analogues” (J Nat Prod, 2024).)
